Common to all, as to test: NCI tumour cell line growth inhibition, 48 h
Assay [1] deals with CCRF-CEM leukemia.
Assay [2] deals with A498 renal.
In assay [3] the test system is OVCAR-8 ovarian.
In assay [4] the test system is HL-60(TB) leukemia.
The subject of assay [5] is SK-MEL-28 melanoma.
Assay [6] concerns TK-10 renal.
In assay [7] the test system is CAKI-1 renal.
Assay [8] deals with MDA-MB-435.
The subject of assay [9] is SNB-19 CNS.
Assay [10] deals with OVCAR-4 ovarian.

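Protocol summary: plate cells (96-well), add compound at 5 concentrations, incubate 48 h, interpolate endpoints linearly. GI50 is the concentration that inhibits growth by half. Definition used: TGI = concentration required for complete inhibition of growth.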 Some results are limits rather than exact numbers.

Turning to `COc1ccc(/C(Cl)=C(\C=O)c2ccc([N+](=O)[O-])cc2)cc1OC`, the TGI in assay [1] was more than 24.7 µM; in assay [2] it was more than 54.4 µM; in assay [3] it was more than 86 µM; in assay [4], 11.6 µM; in assay [5], 30.5 µM; in assay [6], more than 47.3 µM. Also, the results for the TGI in [7], in [8] and in assay [9] were 26.4 µM, 13.5 µM and more than 100 µM, respectively.

As for `Cc1cccc(Oc2nccc(-c3c(-c4ccc(F)cc4)ncn3C3CCNCC3)n2)c1C`, the GI50 in assay [2] is 6.22 µM; in assay [10], 7.9 µM; in assay [3], 10.7 µM; in assay [4], 9.38 µM; in [5], 4.65 µM; in assay [6], 7.16 µM. Further, the GI50 in assay [7] was 8.79 µM; in assay [8] it was 6.52 µM; in assay [9], 10.2 µM. Besides, the TGI was more than 15.7 µM in [2]; more than 25 µM in assay [10]; more than 23.5 µM in assay [3]; more than 22.4 µM in assay [4]; 9.48 µM in assay [5]; more than 16.3 µM in [6]. For the same compound, the TGI in [7] was more than 19.8 µM; in assay [8], more than 16.1 µM; in assay [9], more than 25 µM.

Turning to `O=C(OCc1ccccc1)N1CCN(/[N+]([O-])=N/Oc2ccc([N+](=O)[O-])cc2[N+](=O)[O-])CC1`, the GI50 was 31.5 µM in assay [3]; 18.8 µM in [4]; 13.2 µM in assay [5]; 17.6 µM in assay [6]; 4.8 µM in assay [7]; 4.93 µM in assay [8]. In addition, the GI50 in assay [9] was 13.6 µM. Further, the TGI is more than 100 µM in [3]; 57.3 µM in assay [4]; 31.1 µM in assay [5]; 33.4 µM in assay [6]; 15.9 µM in [7]; 19.5 µM in assay [8]. The compound further showed a TGI in assay [9] of 35.8 µM.

With `O=C(CO)CC(=O)C(=O)Nc1nc([N+](=O)[O-])cs1`, the TGI in assay [1], in assay [2], in assay [10], in assay [3], in assay [4] and in assay [5] was more than 100 µM each time. Also, the TGI in assay [6], in [7] and in assay [9] was more than 100 µM each time.

As for `CS(=O)CCCCCN=C=S` (centres undefined), the GI50 was 4.1 µM in assay [1]; 10.4 µM in assay [2]; 5.11 µM in [10]; 4.93 µM in [3]; 4.07 µM in assay [5]; 3.83 µM in assay [6]. Further, the GI50 was 3.69 µM in assay [7], 3.57 µM in assay [8] and 16.1 µM in assay [9]. Moreover, the TGI in [1] came to 16.3 µM; in assay [2], 23.5 µM; in assay [10], 22.8 µM; in assay [3], 22.1 µM; in assay [5] it was 16.8 µM; in [6] it was 10.3 µM. The TGI in [7] stood at 13.8 µM; in assay [8] it was 15.8 µM; in [9], 32.1 µM.

As to `CSC(C1c2ccccc2N(C)C2=NC(=O)N(C)C(=O)C21Cl)S(=O)(=O)c1ccc(C)cc1` (centres undefined), the TGI was 28.3 µM in assay [1]; more than 100 µM in [2]; more than 100 µM in assay [10]; 46.3 µM in [3]; 39.7 µM in assay [4]; 75.4 µM in assay [5]. For the same compound, the TGI was more than 100 µM in assay [6], 48 µM in [7] and more than 100 µM in [9].

As to `OCCCN=NNc1ccc(-c2nc3ccccc3[nH]2)cc1`, the GI50 in assay [1] was 0.644 µM; in assay [10] it was 3.78 µM; in assay [3] it was 3.12 µM; in assay [4], 25.2 µM; in [5], 2.47 µM; in [6] it was 31.9 µM. The GI50 in assay [7] is 15.4 µM; in [8] it was 3.44 µM; in assay [9], 22.9 µM. The TGI was more than 100 µM in assay [1]; more than 100 µM in [10]; more than 100 µM in [3]; 96.2 µM in [4]; 6.46 µM in [5]; 82.5 µM in assay [6]. Further, the TGI amounted to 39.3 µM in assay [7], 16.1 µM in assay [8] and 48.8 µM in assay [9].

Regarding `CSc1cnn(CCC#N)c(=O)n1`, the TGI in assay [1], in assay [2], in assay [3], in [4], in [5] and in [6] was more than 100 µM each time. The TGI in [7], in assay [8] and in [9] was more than 100 µM each time.

As for `CC(=O)C1CC=C(C)CC1` (centres undefined), the TGI in [1], in assay [2], in [10], in assay [3], in [4] and in [5] was more than 100 µM throughout. Besides, the TGI in assay [6], in assay [7] and in [9] was more than 100 µM each time.

For the compound `COc1ccc(-c2ccc(/C=N/n3c(COc4ccccc4Cl)nn(CN4CCN(C)CC4)c3=S)o2)c([N+](=O)[O-])c1`, the GI50 in assay [1] is 21.7 µM; in assay [3], 17.3 µM; in [4], 32.8 µM; in assay [5], 24.5 µM; in assay [6] it was 12.9 µM; in assay [7], 5.19 µM. For the same compound, the results for the GI50 in [8] and in assay [9] were 18.3 µM and 27.1 µM, respectively. The TGI in [1] is more than 100 µM; in assay [3], 42.2 µM; in assay [4] it was 65.7 µM; in [5], 69.4 µM; in assay [6], 45.4 µM; in assay [7] it was 14.6 µM. For the same compound, the TGI in assay [8] was 40.9 µM; in assay [9], more than 100 µM.

On to `Cc1ccc(C2NC(=S)NC3=C2CCOc2c3ccc3ccccc23)cc1` (centres undefined), for which the GI50 was more than 100 µM in assay [1]; 29.4 µM in assay [10]; more than 100 µM in assay [3]; 5.86 µM in assay [4]; 57.4 µM in assay [5]; more than 100 µM in assay [6]. For the same compound, the GI50 in assay [7] is 3.07 µM; in assay [8], 2.78 µM; in assay [9] it was more than 100 µM. Also, the TGI in [1], in assay [10], in assay [3], in [4], in assay [5] and in [6] was more than 100 µM throughout. Besides, the figures for the TGI in assay [7], in [8] and in [9] were 11.7 µM, more than 100 µM and more than 100 µM, respectively.

For the compound `NS(=O)(=O)c1cc2c(cc1Cl)NC(Cc1ccccc1)NS2(=O)=O` (centres undefined), the TGI in assay [2], in [10], in assay [3], in [5], in assay [6] and in [7] was more than 100 µM throughout. In addition, the TGI in assay [8] and in [9] was more than 100 µM each time.

In the case of `COc1cc2c(cc1OC)-c1cc3cc(OC)c(OC)cc3n1CC2`, the TGI was more than 100 µM in assay [1]; 50.6 µM in [2]; more than 100 µM in [10]; 73.1 µM in assay [3]; more than 100 µM in assay [4]; more than 100 µM in [5]. The TGI in [6] was 51.9 µM; in assay [7] it was more than 100 µM; in [9], 95.8 µM.

Consider `CCN(CC)CCCNc1cccc2c(SCc3ccccc3)ccnc12`, for which the GI50 is 0.179 µM in assay [1]; 1.92 µM in [2]; 2.62 µM in assay [10]; 3.41 µM in assay [3]; 1.99 µM in assay [5]; 1.56 µM in assay [6]. Further, the GI50 is 1.59 µM in assay [7], 1.84 µM in assay [8] and 1.83 µM in assay [9]. In addition, the TGI was found to be 3 µM in assay [1]; 4.98 µM in assay [2]; 8.29 µM in assay [10]; 11.5 µM in assay [3]; 3.5 µM in assay [5]; 2.98 µM in assay [6]. The TGI stood at 3.21 µM in [7], 3.65 µM in assay [8] and 3.89 µM in assay [9].

`CC(C)CCOc1ccc(-c2n[nH]c(C(F)(F)F)c2-c2cncc(C#N)c2)c(O)c1`: the GI50 is 1.75 µM in assay [2]; 3.48 µM in [10]; 2.78 µM in [3]; 1.98 µM in assay [4]; 2.17 µM in assay [5]; 3.15 µM in [6]. Besides, the GI50 was 3.17 µM in [7], 3.6 µM in [8] and 2.98 µM in [9]. Moreover, the TGI is 6.64 µM in assay [2]; more than 100 µM in assay [10]; 19.1 µM in [3]; 5.47 µM in assay [4]; more than 100 µM in [5]; 14.1 µM in assay [6]. Moreover, the TGI in [7] is 13.6 µM; in assay [8], 32.6 µM; in assay [9] it was 31.5 µM.

As to `CC(=O)O/N=C/c1ncccc1OC(C)=O`, the TGI in assay [1], in assay [2], in assay [10], in assay [3], in assay [4] and in assay [5] was more than 100 µM in each case. Further, the TGI in [6], in assay [7] and in assay [9] was more than 100 µM throughout.

The values are drawn from PubChem BioAssay (NCI).
